Reference: patent US3980794A, “Method for promoting growth of poultry with 3-(5-nitro-2-imidazolyl)pyrazoles” (Eli Lilly and Company, priority 1975, dated 1976)
Converted amounts (≈) assume the structure as drawn.

Legend:
E. coli = experiment: Oral activity against E. coli infection in chickens (Experiment 6); format: in vivo
Method: The evaluation of the effectiveness of selected nitroimidazoles for their oral activity against E. coli infection in chickens was accomplished as follows.
Broiler type, five-week-old chickens were wing-banded and individually weighed. Replicates of 8 chickens, each replicate having the same average chicken weight, were formed. Three replicates were run for each treatment. Treatment was initiated via the feed 24 hours prior to challenge. The E. coli challenge strain was No. 2- 1- 8. The challenge inoculum consisted of 0.5 ml. of 10^-^1 dilution of a 15-18 hour tryptose broth culture administered into the right thoracic air sac of each chicken. Eight to ten days following challenge, all surviving chickens were weighed and examined for lesions. Any chicken that died during the experiment was also examined for lesions such as air sac lesions, pericarditis lesions, and perihepatitis lesions, and a culture made. The pre-treatment average weight per bird was 790 g. The test compounds were the same as before, identified as 1, 6, and 7.

[1] = Growth promotion efficacy in broiler chicks (Experiment 7); format: in vivo; details: for F/G (feed conversion) / Wt. Gn. (average weight gain) / % Impr. in feed conversion / % Impr. in weight gain: 21 days; for % Impr. in feed conversion / % Impr. in weight gain: compared to contemporary control
Excerpt: 5-Amino-1-methyl-3-(1-methyl-5-nitro-2-imidazolyl)pyrazole-4-carbonitrile, compound 1, was fed to broiler chicks to evaluate its growth promotion efficacy.
The compound was fed at levels of 10, 25 and 50 g./ton of typical broiler rations (set forth below) to a total of 120 replicates of 8 birds each in four time-replicated studies.
All the birds in the tests were pre-brooded for seven days in floor pens before being placed on treatment. The treatment period extended for 21 days in starter batteries. Feed and water were provided ad libitum at all times. A nontreated feed was fed during the pre-brood period.
The results of the studies are presented in Chart 8. In the chart, column 1 gives the identification of the test compound; column 2, the level of administration of the test compound in the feed; column 3, the number of replicates per treatment; column 4, the average weight gain in grams; column 5, the percent improvement in weight gain; column 6, the feed conversion, which is the ratio of the feed consumed (F) to the weight gained (G); and column 7, the percent improvement in feed conversion.
All 10 and 50 g. data were obtained using Diet 1. The 25 g. data were obtained using Diet 1 (25%) and Diet 2 (75%).

Salmonella dublin = experiment: In vivo activity against Salmonella dublin in calves (Experiment 11)
Method: The in vivo activity of compound 1 against Salmonella dublin was determined in the following manner.
The calves for the in vivo experiment were purchased from a commercial source. Thirty-two calves were brought to the research facility where they were weighed individually and identified by ear tag. Each calf weighed about 90 pounds. The calves were then randomly divided by weight into eight groups of four calves each. Rectal swabs for Salmonella dublin and Escherichia coli isolation were obtained before treatment was started.
Four groups of four calves each were treated with the test compound. Treatment was started 24 hours after challenge with Salmonella dublin and continued for six consecutive days. Treatment was accomplished by oral administration twice daily of gelatin capsules of test compound 1. During the treatment, rectal swabs were taken daily of each calf and bacterial isolations for salmonella species were run. At the end of the trial, rectal swabs for E. coli and salmonella species were taken again. The trials were terminated the day following the last treatment, at which time the calves were weighed and sacrificed.
In the chart, column 1 records the dose rate/day/calf; column 2, the dose rate in mg./lb.; column 3, the survival ratio observed; and column 4, the occurrence of salmonella isolates obtained at necropsy.

[2] = test system: Pasteurella multocida, bovine strain; experiment: Oral activity against Pasteurella multocida, bovine strain, in mice (Experiment 3); format: in vivo, White Swiss mice; details: 100 g. per ton of feed; LD50 of control minus LD50 of treated group (log10 dilutions)
Method: White Swiss female mice weighing 15-20 g. each were used in the test. Seven groups of ten mice each were treated at a level of 100 g. of test compound per ton of feed. The animals received the medication in the feed for 2 days prior to challenge and for 7 days post challenge. Similar groups of mice on a ration without the antimicrobial agent were used as controls. Both the treated mice and the control groups of mice were challenged with log10 dilutions ranging from 10^-^2 through 10^-^8 of a 16 to 20-hour culture of Pasteurella multocida, bovine strain, at 0.1 ml. per mouse, administered subcutaneously. […] By subtracting the LD50 of each of the treated groups from that of the control group of mice, there was obtained a figure called the protective index.
In the chart, column 1 lists the test compound, identified in the same manner as set forth in Experiment 1; and column 2 lists the protective index.

Pasteurella multocida = experiment: Oral activity against Pasteurella multocida-caused infection in chickens (Experiment 5A); format: in vivo; details: 100 g./ton in feed
Method: A. Selected examples of the novel compounds were evaluated for their oral activity against Pasteurella multocida-caused infection in chickens. Four to five-week-old chickens were divided into groups of eight, and the compounds administered thereto in the feed. Two replicates were run for each compound. Twenty-four hours after the chickens began receiving the compound in their feed, the treated groups, as well as the nontreated control groups, were challenged intravenously with a broth culture of P. multocida. […] The chicks were observed during seven days following the challenge and the mortality in the treated groups was compared to that of the control group. The heart and liver were removed from each chicken which died during the test and cultured to determine the presence of P. multocida. At the termination of the test, all surviving chickens were sacrificed, the heart and liver removed from each chicken and cultured to determine the presence of P. multocida.

Aeromonas liquefaciens = experiment: In vitro activity against fish bacterial pathogens, tube dilution (Experiment 13); details: Aeromonas hydrophila, read-out: minimum inhibitory concentration (MIC), Aeromonas liquetaciens
P. multocida = experiment: Oral activity against P. multocida in turkeys (Experiment 5B); format: in vivo; details: 100 g./ton in feed
[3] = 25 g./t. fed, Diet 1 (25%) and Diet 2 (75%)
[4] = 100 mg./day oral (1.25 mg./lb.)

Cn1nc(-c2ncc([N+](=O)[O-])n2C)c(C#N)c1N [Compound 1, 5-Amino-1-methyl-3-(1-methyl-5-nitro-2-imidazolyl)pyrazole-4-carbonitrile]
Avg. Wt./Chicken (E. coli; 100 g./ton in feed): 1058 g
No. chickens with lesions/No. in group (E. coli; 100 g./ton in feed): 16/24
Survival Ratio (E. coli; 100 g./ton in feed): 24/24
Avg. Wt./Chicken (E. coli; 200 g./ton in feed): 1104 g
No. chickens with lesions/No. in group (E. coli; 200 g./ton in feed): 8/24
Survival Ratio (E. coli; 200 g./ton in feed): 24/24
Avg. Wt./Chicken (E. coli; 300 g./ton in feed): 1014 g
No. chickens with lesions/No. in group (E. coli; 300 g./ton in feed): 1/24
Survival Ratio (E. coli; 300 g./ton in feed): 24/24
F/G (feed conversion) ([1]; 10 g./t. fed, Diet 1): 1.580
Wt. Gn. (average weight gain) ([1]; 10 g./t. fed, Diet 1): 580 g
% Impr. in feed conversion ([1]; 10 g./t. fed): 2.35%
% Impr. in weight gain ([1]; 10 g./t. fed): 4.50%
F/G (feed conversion) [1, 3]: 1.751
Wt. Gn. (average weight gain) [1, 3]: 468 g
% Impr. in feed conversion ([1]; 25 g./t. fed): 4.68%
% Impr. in weight gain ([1]; 25 g./t. fed): 6.12%
F/G (feed conversion) ([1]; 50 g./t. fed, Diet 1): 1.578
Wt. Gn. (average weight gain) ([1]; 50 g./t. fed, Diet 1): 564 g
% Impr. in feed conversion ([1]; 50 g./t. fed): 4.54%
% Impr. in weight gain ([1]; 50 g./t. fed): 3.87%
growth promoter effectiveness ([1]; oral to chicks, compound 1 at about 10 to about 50 g. per ton of feed): effective as a growth promoter
Salmonella isolates at necropsy (Salmonella dublin; [4]): 1/4
Survival Ratio (Salmonella dublin; [4]): 4/4
Salmonella isolates at necropsy (Salmonella dublin; 250 mg./day oral (2.5 mg./lb.)): 2/4
Survival Ratio (Salmonella dublin; 250 mg./day oral (2.5 mg./lb.)): 4/4
Salmonella isolates at necropsy (Salmonella dublin; 500 mg./day oral (5 mg./lb.)): 1/4
Survival Ratio (Salmonella dublin; 500 mg./day oral (5 mg./lb.)): 4/4
Salmonella isolates at necropsy (Salmonella dublin; 1000 mg./day oral (11 mg./lb.)): 0/4
Survival Ratio (Salmonella dublin; 1000 mg./day oral (11 mg./lb.)): 4/4
salmonella isolates from organs of treated calves (Salmonella dublin; at termination of the trial): reduced number of salmonella isolates
control of Salmonella dublin in calves (Salmonella dublin; compound 1 oral, about 100 to about 1000 mg./day/calf): effective in controlling Salmonella dublin in calves
Protective Index [2]: > 5.6
Culture Isolation P. multocida (Pasteurella multocida; replicate 1): 0/ 8
Survival Ratio (Pasteurella multocida; replicate 1): 8/ 8
Culture Isolation P. multocida (Pasteurella multocida; replicate 2): 1/ 8
Survival Ratio (Pasteurella multocida; replicate 2): 8/ 8
Culture Isolation P. multocida (Pasteurella multocida; total): 1/16
Survival Ratio (Pasteurella multocida; total): 16/16
MIC (Aeromonas liquefaciens): 3.12 µg/mL (≈ 12.6 µM)
Culture Isolation P. multocida (P. multocida): 0/5
Survival Ratio (P. multocida): 5/5

COC=Nc1c(C#N)c(-c2ncc([N+](=O)[O-])n2C)nn1C [Compound 6, Methyl N-[4-cyano-1-methyl-3-(1-methyl-5-nitro-2-imidazolyl)pyrazol-5-yl]formimidate]
Avg. Wt./Chicken (E. coli; 100 g./ton in feed): 1098 g
No. chickens with lesions/No. in group (E. coli; 100 g./ton in feed): 11/24
Survival Ratio (E. coli; 100 g./ton in feed): 24/24
Avg. Wt./Chicken (E. coli; 200 g./ton in feed): 1059 g
No. chickens with lesions/No. in group (E. coli; 200 g./ton in feed): 1/24
Survival Ratio (E. coli; 200 g./ton in feed): 24/24
Avg. Wt./Chicken (E. coli; 300 g./ton in feed): 1055 g
No. chickens with lesions/No. in group (E. coli; 300 g./ton in feed): 6/24
Survival Ratio (E. coli; 300 g./ton in feed): 24/24
Protective Index [2]: 4.3
Culture Isolation P. multocida (Pasteurella multocida; replicate 1): 0/ 8
Survival Ratio (Pasteurella multocida; replicate 1): 8/ 8
Culture Isolation P. multocida (Pasteurella multocida; replicate 2): 0/ 8
Survival Ratio (Pasteurella multocida; replicate 2): 8/ 8
Culture Isolation P. multocida (Pasteurella multocida; total): 0/16
Survival Ratio (Pasteurella multocida; total): 16/16
Culture Isolation P. multocida (P. multocida): 0/5
Survival Ratio (P. multocida): 5/5

CCCCOC=Nc1c(C#N)c(-c2ncc([N+](=O)[O-])n2C)nn1C [Compound 7, Butyl N-[4-Cyano-1-methyl-3-(1-methyl-5-nitro-2-imidazolyl)-pyrazol-5-yl]formimidate]
Avg. Wt./Chicken (E. coli; 100 g./ton in feed): 1023 g
No. chickens with lesions/No. in group (E. coli; 100 g./ton in feed): 15/24
Survival Ratio (E. coli; 100 g./ton in feed): 24/24
Avg. Wt./Chicken (E. coli; 200 g./ton in feed): 1033 g
No. chickens with lesions/No. in group (E. coli; 200 g./ton in feed): 23/24
Survival Ratio (E. coli; 200 g./ton in feed): 24/24
Avg. Wt./Chicken (E. coli; 300 g./ton in feed): 1132 g
No. chickens with lesions/No. in group (E. coli; 300 g./ton in feed): 6/24
Survival Ratio (E. coli; 300 g./ton in feed): 24/24
Protective Index [2]: 3.4
Culture Isolation P. multocida (Pasteurella multocida; replicate 1): 2/ 8
Survival Ratio (Pasteurella multocida; replicate 1): 6/ 8
Culture Isolation P. multocida (Pasteurella multocida; replicate 2): 2/ 8
Survival Ratio (Pasteurella multocida; replicate 2): 8/ 8
Culture Isolation P. multocida (Pasteurella multocida; total): 4/16
Survival Ratio (Pasteurella multocida; total): 14/16
Culture Isolation P. multocida (P. multocida): 0/5
Survival Ratio (P. multocida): 5/5
